# Measured values as given in patent US20230014181A1, “CULTURE SYSTEM AND METHODS FOR IMPROVED MODELING OF NEUROLOGICAL CONDITIONS” (Genentech, Inc., priority 2021, published 2023).
# Like-named read-outs stand apart in the source and are kept apart here. Where a SMILES comes first, the peptide text is derived from it. [ ]: non-standard residue; d: D form. Nle = CCCC[C@H](N)C(=O)O
# What was measured:
# Format in all cases: cell-based
# [1] = tested on: Aβ42 oligomer-induced neural toxicity in human iPSC neurons; experiment: Hit validation by IC50 curves in double culture (MAP2, Synapsin 1/2, CUX2, NFL-H); settings: dose response
# Procedure: (§1) Error bars+/−s.e.m. and n=4 wells. IC50 curves were fitted by Prism software.
# as §1
# Error bars+/−s.e.m. and n=4 wells. IC50 curves were fitted using Prism software.
# To further validate this pathway, several known inhibitors of kinases in the DLK signaling pathway were tested to determine whether they could also be neuroprotective in the AD model.
# [2] = tested on: human iPSC neurons and astrocytes treated with 5 μM sAβ42s; experiment: Focused small molecule screen, double culture (neuron, astrocyte), rescue from sAβ42s toxicity, high content imaging; settings: double culture, 5 μM sAβ42s; for percent rescue from sAβ42s toxicity at 6.25 µM / percent rescue from sAβ42s toxicity at 12.5 µM / percent rescue from sAβ42s toxicity at 25 µM / percent rescue from sAβ42s toxicity at 50 µM: Homo sapiens, iPSC
# In short: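 Human iPSC neuron–astrocyte cultures given 5 μM sAβ42 oligomers plus compounds at 50, 25, 12.5 and 6.25 μM (10× additions). Fixed cells immunostained for MAP2, synapsin 1/2, CUX2 and beta III tubulin, imaged by confocal high-content microscopy; % rescue computed, ≥30% in any readout scored as hit.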
# [3] = tested on: human iPSC neurons, astrocytes and microglia treated with 5 μM sAβ42s; experiment: Focused small molecule screen, triple culture (neuron, astrocyte, microglia), rescue from sAβ42s toxicity; settings: for percent rescue from sAβ42s toxicity at 0.78 µM / percent rescue from sAβ42s toxicity at 3.13 µM / percent rescue from sAβ42s toxicity at 12.5 µM / percent rescue from sAβ42s toxicity at 50 µM: Homo sapiens, iPSC
# In short: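 A hit was any compound giving ≥30% rescue of dendrite area (MAP2), synapse count, CUX2 cell count or axon area when dosed against 5 μM sAβ42s toxicity. Testing used iPSC-derived double (neuron/astrocyte) or triple (plus microglia) cultures, at four concentrations of 50, 25, 12.5 and 6.25 μM for double and 50, 12.5, 3.1 and 0.78 μM for triple cultures.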
# [4] = 6.25 μM compound, read-out: % B3T rescue
# [5] = 6.25 μM compound, read-out: % Cux2 rescue
# [6] = 6.25 μM compound, read-out: % MAP2 rescue
# [7] = 6.25 μM compound, read-out: % Synapse rescue
# [8] = 12.5 μM compound, read-out: % B3T rescue
# [9] = 12.5 μM compound, read-out: % Cux2 rescue
# [10] = 12.5 μM compound, read-out: % MAP2 rescue
# [11] = 12.5 μM compound, read-out: % Synapse rescue
# [12] = 25 μM compound, read-out: % B3T rescue
# [13] = 25 μM compound, read-out: % Cux2 rescue
# [14] = 25 μM compound, read-out: % MAP2 rescue
# [15] = 25 μM compound, read-out: % Synapse rescue
compound,measurement,setting,value
Nc1ccc(-c2cnc(N)c(-c3ccc(Cl)cc3)c2)cn1 [PF06260933],neuronal protection against Aβ,[1],conferred neuronal protection against Aβ in a dose-dependent manner
Cc1cc(NC(=O)c2cccc(NC(=O)/C=C/CN(C)C)c2)ccc1Nc1nccc(-c2cccnc2)n1 [JNK-IN-8],neuronal protection against Aβ,[1],conferred neuronal protection against Aβ in a dose-dependent manner
Nc1ncc(C(=O)NC2CN(C(=O)C3CC3)C2)c2ccc(-c3cccc(F)c3)nc12 [GNE-495],neuronal protection against Aβ,[1],conferred neuronal protection against Aβ in a dose-dependent manner
Cc1cc(Nc2cc(N3CCN(C)CC3)nc(Sc3ccc(NC(=O)C4CC4)cc3)n2)n[nH]1 [VX-680],neuronal protection against Aβ,[1],conferred neuronal protection against Aβ in a dose-dependent manner
CCCC[C@@H](C=O)NC(=O)[C@H](CC(C)C)NC(=O)[C@H](CC(C)C)NC(C)=O [Ac-Leu-Leu-Nle-CHO] (Ac-Leu-Leu-[Nle]-aldehyde),% B3T rescue,[2]; 6.25 μM compound,14%
same,% Cux2 rescue,[2]; 6.25 μM compound,85%
same,% MAP2 rescue,[2]; 6.25 μM compound,31%
same,% Synapse rescue,[2]; 6.25 μM compound,0%
same,% B3T rescue,[2]; 12.5 μM compound,0%
same,% Cux2 rescue,[2]; 12.5 μM compound,87%
same,% MAP2 rescue,[2]; 12.5 μM compound,18%
same,% Synapse rescue,[2]; 12.5 μM compound,−4%
same,% B3T rescue,[2]; 25 μM compound,−11%
same,% Cux2 rescue,[2]; 25 μM compound,87%
same,% MAP2 rescue,[2]; 25 μM compound,20%
same,% Synapse rescue,[2]; 25 μM compound,−5%
same,% B3T rescue,[2]; 50 μM compound,0%
same,% Cux2 rescue,[2]; 50 μM compound,78%
same,% MAP2 rescue,[2]; 50 μM compound,23%
same,% Synapse rescue,[2]; 50 μM compound,2%
same,% B3T rescue,[3]; 0.78 μM compound,38%
same,% MAP2 rescue,[3]; 0.78 μM compound,21%
same,% Synapse rescue,[3]; 0.78 μM compound,14%
same,% B3T rescue,[3]; 3.13 μM compound,57%
same,% MAP2 rescue,[3]; 3.13 μM compound,55%
same,% Synapse rescue,[3]; 3.13 μM compound,38%
same,% B3T rescue,[3]; 12.50 μM compound,44%
same,% MAP2 rescue,[3]; 12.50 μM compound,48%
same,% Synapse rescue,[3]; 12.50 μM compound,18%
O=C(Nc1cccc(Br)c1)c1cccc(S(=O)(=O)N2CCCCCC2)c1 [AK 7],% B3T rescue,[2]; 50 μM compound,42%
same,% Cux2 rescue,[2]; 50 μM compound,0%
same,% MAP2 rescue,[2]; 50 μM compound,−17%
same,% Synapse rescue,[2]; 50 μM compound,−5%
same,% B3T rescue,[3]; 0.78 μM compound,79%
same,% MAP2 rescue,[3]; 0.78 μM compound,1%
same,% Synapse rescue,[3]; 0.78 μM compound,3%
same,% B3T rescue,[3]; 3.13 μM compound,77%
same,% MAP2 rescue,[3]; 3.13 μM compound,18%
same,% Synapse rescue,[3]; 3.13 μM compound,13%
same,% B3T rescue,[3]; 12.50 μM compound,81%
same,% MAP2 rescue,[3]; 12.50 μM compound,53%
same,% Synapse rescue,[3]; 12.50 μM compound,42%
same,% B3T rescue,[3]; 50.00 μM compound,56%
same,% MAP2 rescue,[3]; 50.00 μM compound,28%
same,% Synapse rescue,[3]; 50.00 μM compound,17%
CCN(CC)CCNC(=O)c1c(C)[nH]c(/C=C2\C(=O)Nc3ccc(F)cc32)c1C [SU 11248],% B3T rescue,[2]; 25 μM compound,−19%
same,% Cux2 rescue,[2]; 25 μM compound,59%
same,% MAP2 rescue,[2]; 25 μM compound,16%
same,% Synapse rescue,[2]; 25 μM compound,4%
same,% B3T rescue,[2]; 50 μM compound,4%
same,% Cux2 rescue,[2]; 50 μM compound,115%
same,% MAP2 rescue,[2]; 50 μM compound,7%
same,% Synapse rescue,[2]; 50 μM compound,21%
same,% B3T rescue,[3]; 0.78 μM compound,69%
same,% MAP2 rescue,[3]; 0.78 μM compound,73%
same,% Synapse rescue,[3]; 0.78 μM compound,68%
same,% B3T rescue,[3]; 3.13 μM compound,74%
same,% MAP2 rescue,[3]; 3.13 μM compound,88%
same,% Synapse rescue,[3]; 3.13 μM compound,77%
MDL 28170,% B3T rescue,[2]; 6.25 μM compound,18%
same,% Cux2 rescue,[2]; 6.25 μM compound,81%
same,% MAP2 rescue,[2]; 6.25 μM compound,33%
same,% Synapse rescue,[2]; 6.25 μM compound,10%
same,% B3T rescue,[2]; 12.5 μM compound,22%
same,% Cux2 rescue,[2]; 12.5 μM compound,74%
same,% MAP2 rescue,[2]; 12.5 μM compound,33%
same,% Synapse rescue,[2]; 12.5 μM compound,9%
same,% B3T rescue,[2]; 25 μM compound,25%
same,% Cux2 rescue,[2]; 25 μM compound,84%
same,% MAP2 rescue,[2]; 25 μM compound,36%
same,% Synapse rescue,[2]; 25 μM compound,11%
same,% B3T rescue,[2]; 50 μM compound,47%
same,% Cux2 rescue,[2]; 50 μM compound,57%
same,% MAP2 rescue,[2]; 50 μM compound,26%
same,% Synapse rescue,[2]; 50 μM compound,23%
same,% B3T rescue,[3]; 0.78 μM compound,30%
same,% MAP2 rescue,[3]; 0.78 μM compound,19%
same,% Synapse rescue,[3]; 0.78 μM compound,10%
same,% B3T rescue,[3]; 12.50 μM compound,33%
same,% MAP2 rescue,[3]; 12.50 μM compound,31%
same,% Synapse rescue,[3]; 12.50 μM compound,8%
same,% B3T rescue,[3]; 50.00 μM compound,73%
same,% MAP2 rescue,[3]; 50.00 μM compound,47%
same,% Synapse rescue,[3]; 50.00 μM compound,41%
O=C1NC(=O)c2c1c1c3ccccc3n3c1c1c2c2ccccc2n1C1CCC3O1 [SB 218078],% B3T rescue,[2]; 50 μM compound,72%
same,% Cux2 rescue,[2]; 50 μM compound,−39%
same,% MAP2 rescue,[2]; 50 μM compound,−92%
same,% Synapse rescue,[2]; 50 μM compound,−15%
same,% B3T rescue,[3]; 0.78 μM compound,38%
same,% MAP2 rescue,[3]; 0.78 μM compound,10%
same,% Synapse rescue,[3]; 0.78 μM compound,14%
same,% B3T rescue,[3]; 50.00 μM compound,−11%
same,% MAP2 rescue,[3]; 50.00 μM compound,53%
same,% Synapse rescue,[3]; 50.00 μM compound,19%
"CN1CCN(CCOc2cc(OC3CCOCC3)c3c(Nc4c(Cl)ccc5c4OCO5)ncnc3c2)CC1 [Saracatinib (AZD0530), Saracatinib]",percent rescue from sAβ42s toxicity at 6.25 µM,[2]; [4],62%
same,percent rescue from sAβ42s toxicity at 6.25 µM,[2]; [5],7%
same,percent rescue from sAβ42s toxicity at 6.25 µM,[2]; [6],61%
same,percent rescue from sAβ42s toxicity at 6.25 µM,[2]; [7],32%
same,percent rescue from sAβ42s toxicity at 12.5 µM,[2]; [8],56%
same,percent rescue from sAβ42s toxicity at 12.5 µM,[2]; [9],13%
same,percent rescue from sAβ42s toxicity at 12.5 µM,[2]; [10],71%
same,percent rescue from sAβ42s toxicity at 12.5 µM,[2]; [11],34%
same,percent rescue from sAβ42s toxicity at 25 µM,[2]; [12],30%
same,percent rescue from sAβ42s toxicity at 25 µM,[2]; [13],18%
same,percent rescue from sAβ42s toxicity at 25 µM,[2]; [14],65%
same,percent rescue from sAβ42s toxicity at 25 µM,[2]; [15],10%
same,percent rescue from sAβ42s toxicity at 0.78 µM,"[3]; 0.78 μM compound, read-out: % B3T rescue",99%
same,percent rescue from sAβ42s toxicity at 0.78 µM,"[3]; 0.78 μM compound, read-out: % MAP2 rescue",72%
same,percent rescue from sAβ42s toxicity at 0.78 µM,"[3]; 0.78 μM compound, read-out: % Synapse rescue",65%
same,percent rescue from sAβ42s toxicity at 3.13 µM,"[3]; 3.13 μM compound, read-out: % B3T rescue",99%
same,percent rescue from sAβ42s toxicity at 3.13 µM,"[3]; 3.13 μM compound, read-out: % MAP2 rescue",73%
same,percent rescue from sAβ42s toxicity at 3.13 µM,"[3]; 3.13 μM compound, read-out: % Synapse rescue",65%
same,percent rescue from sAβ42s toxicity at 12.5 µM,"[3]; 12.50 μM compound, read-out: % B3T rescue",35%
same,percent rescue from sAβ42s toxicity at 12.5 µM,"[3]; 12.50 μM compound, read-out: % MAP2 rescue",-12%
same,percent rescue from sAβ42s toxicity at 12.5 µM,"[3]; 12.50 μM compound, read-out: % Synapse rescue",-2%
CCCC[C@@H](C=O)NC(=O)[C@H](CC(C)C)NC(=O)OCc1ccccc1 [Calpeptin],percent rescue from sAβ42s toxicity at 6.25 µM,[2]; [4],9%
same,percent rescue from sAβ42s toxicity at 6.25 µM,[2]; [5],70%
same,percent rescue from sAβ42s toxicity at 6.25 µM,[2]; [6],22%
same,percent rescue from sAβ42s toxicity at 6.25 µM,[2]; [7],6%
same,percent rescue from sAβ42s toxicity at 12.5 µM,[2]; [8],4%
same,percent rescue from sAβ42s toxicity at 12.5 µM,[2]; [9],79%
same,percent rescue from sAβ42s toxicity at 12.5 µM,[2]; [10],27%
same,percent rescue from sAβ42s toxicity at 12.5 µM,[2]; [11],11%
same,percent rescue from sAβ42s toxicity at 25 µM,[2]; [12],7%
same,percent rescue from sAβ42s toxicity at 25 µM,[2]; [13],91%
same,percent rescue from sAβ42s toxicity at 25 µM,[2]; [14],39%
same,percent rescue from sAβ42s toxicity at 25 µM,[2]; [15],9%
same,percent rescue from sAβ42s toxicity at 50 µM,"[2]; 50 μM compound, read-out: % B3T rescue",20%
same,percent rescue from sAβ42s toxicity at 50 µM,"[2]; 50 μM compound, read-out: % Cux2 rescue",96%
same,percent rescue from sAβ42s toxicity at 50 µM,"[2]; 50 μM compound, read-out: % MAP2 rescue",36%
same,percent rescue from sAβ42s toxicity at 50 µM,"[2]; 50 μM compound, read-out: % Synapse rescue",15%
same,percent rescue from sAβ42s toxicity at 50 µM,"[3]; 50.00 μM compound, read-out: % B3T rescue",66%
same,percent rescue from sAβ42s toxicity at 50 µM,"[3]; 50.00 μM compound, read-out: % MAP2 rescue",34%
same,percent rescue from sAβ42s toxicity at 50 µM,"[3]; 50.00 μM compound, read-out: % Synapse rescue",34%
O=C1NC(=O)C(c2ccccc2[N+](=O)[O-])=C1Nc1ccc(O)c(Cl)c1 [SB 415286],% B3T rescue,[2]; 50 μM compound,39%
same,% Cux2 rescue,[2]; 50 μM compound,−13%
same,% MAP2 rescue,[2]; 50 μM compound,19%
same,% Synapse rescue,[2]; 50 μM compound,12%
same,% B3T rescue,[3]; 50.00 μM compound,78%
same,% MAP2 rescue,[3]; 50.00 μM compound,42%
same,% Synapse rescue,[3]; 50.00 μM compound,40%
